One test has as its system NDM-HK (NDM-1^+). The test can be described thus: microbe, parasite or virus in culture. Type of test: cell-based, E. coli. As to conditions: for MBC of Bi(III) compound/inhibitor alone / MBC of MER in combination with compound at 32 µg mL^-1 / MIC of Bi(III) compound/inhibitor alone / MIC of MER in combination with compound at 32 µg mL^-1 / FICI: NDM-HK; for FICI: MER + compound, 256 µg mL^-1 set as MIC of Bi(III), 128 for Bi(NAC)3. The method, then:
(§1) MIC values were determined by standard broth micro-dilution method (Clinical and Laboratory Standards Institute (CLSI) M100-S20, 2010)[64]. Briefly, bacterial cells were cultured in LB broth overnight at 37 °C at 250 rpm and the OD was measured at 600 nm (OD600). The bacterial density was adjusted to about 1 × 10^6 CFU mL^−1 and checked by CFU counting on agar plates afterwards. Tested antibiotics or Bi(III) compounds were added triplicately into individual wells of flat-bottomed 96-well plates and performed 2-fold serial dilution, followed by addition of prepared bacterial inocula. The plate was then incubated at 37 °C for overnight. […] The MIC was determined as the lowest concentration of a drug that could inhibit the growth of microorganism by both visual reading and OD reading at 600 nm using a microtiter plate reader.
(§2) Resulting growth (or lack of growth) was examined after overnight culturing and the lowest concentration that inhibits 99.9% of the original culture was taken as MBC.
(§3) Other procedures were kept strictly the same. […] Synergism was defined when FICI ≤ 0.5, indifference was defined when FICI > 0.5 and < 4, and antagonism was defined when FICI≥4[65]. […] All of the determinations were performed at least in triplicate on different days.

A further test concerns VIM-BL21 (VIM-2^+). Put plainly: microbe, parasite or virus in culture. Type of test: cell-based, E. coli. As to conditions: VIM-BL21. The method, then:
as §1, §2, §3

Structures are written as SMILES.

Take `C[C@H](C[S][Bi+][S]C[C@@H](C)C(=O)N1CCC[C@H]1C(=O)[O-])C(=O)N1CCC[C@H]1C(=O)[O-]` [Bi(CPL)2]: in the test on NDM-HK (NDM-1^+), the “MBC of Bi(III) compound/inhibitor alone” value is greater than 256 µg/mL, the “MBC of MER in combination with compound at 32 µg mL^-1” value (“MBC of MER in combination” for short) worked out at 0.5 µg/mL, the “MIC of Bi(III) compound/inhibitor alone” value is greater than 256 µg/mL and the “MIC of MER in combination with compound at 32 µg mL^-1” value (from here on “MIC of MER in combination”) was found to be 0.5 µg/mL. Besides, the FICI in the test with NDM-HK (NDM-1^+) was found to be 0.125. For the same compound, in the test with VIM-BL21 (VIM-2^+), the “MBC of Bi(III) compound alone” value was greater than 256 µg/mL, the “MBC of MER in combination” value worked out at 1 µg/mL, the “MIC of Bi(III) compound alone” value is greater than 256 µg/mL and the “MIC of MER in combination” value is 0.5 µg/mL. Moreover, the FICI in the test on VIM-BL21 (VIM-2^+) (MER + compound, 256 µg mL^-1 set as MIC of Bi(III)) is on record as 0.078.

Turning to `O=C([O-])CN(CCN(CC(=O)[O-])CC(=O)O)CC(=O)[O-].[Bi+3]` [Bi(EDTA)], in the test on NDM-HK (NDM-1^+), the “MBC of Bi(III) compound/inhibitor alone” value is greater than 256 µg/mL, the “MBC of MER in combination” value amounted to 0.5 µg/mL, the “MIC of Bi(III) compound/inhibitor alone” value was greater than 256 µg/mL and the “MIC of MER in combination” value is 0.5 µg/mL. Also, in the test with NDM-HK (NDM-1^+), the FICI turned out to be 0.094.

Turning to `NC(CCC(=O)NC(C[S][Bi]([S]CC(NC(=O)CCC(N)C(=O)O)C(=O)NCC(=O)O)[S]CC(NC(=O)CCC(N)C(=O)O)C(=O)NCC(=O)O)C(=O)NCC(=O)O)C(=O)O` (stereo not shown) [Bi(GSH)3], in the test on NDM-HK (NDM-1^+), the “MBC of Bi(III) compound/inhibitor alone” value was greater than 256 µg/mL, the “MBC of MER in combination” value stood at 4 µg/mL, the “MIC of Bi(III) compound/inhibitor alone” value is greater than 256 µg/mL and the “MIC of MER in combination” value was 2 µg/mL. Also, the FICI with NDM-HK (NDM-1^+) is on record as 0.250.

As for `C[C@H](CS)C(=O)N1CCC[C@@H]1C(=O)O` [CPL, D-captopril], in the test with NDM-HK (NDM-1^+) (Escherichia coli, read-out: MBC of Bi(III) compound/inhibitor alone), the MBC was greater than 256 µg/mL. Further, the MIC with NDM-HK (NDM-1^+) (Escherichia coli, read-out: MIC of Bi(III) compound/inhibitor alone) was greater than 256 µg/mL. In the test on NDM-HK (NDM-1^+), the “MBC of MER in combination” value stood at 16 µg/mL, the “MIC of MER in combination” value was 16 µg/mL and the FICI was 2.000.

Turning to `O=C(O)CN(CCN(CC(=O)O)CC(=O)O)CC(=O)O` [EDTA, ethylenediaminetetraacetate], in the test with NDM-HK (NDM-1^+), the “MBC of Bi(III) compound/inhibitor alone” value was greater than 256 µg/mL, the “MBC of MER in combination” value stood at 0.5 µg/mL, the “MIC of Bi(III) compound/inhibitor alone” value is greater than 256 µg/mL and the “MIC of MER in combination” value is 0.5 µg/mL. Also, the FICI in the test with NDM-HK (NDM-1^+) turned out to be 0.031.

In the case of `CC(=O)N[C@@H](CS)C(=O)O` [NAC, N-acetyl-cysteine], in the test on NDM-HK (NDM-1^+), the “MBC of Bi(III) compound/inhibitor alone” value was greater than 256 µg/mL, the “MBC of MER in combination” value was determined as 8 µg/mL, the “MIC of Bi(III) compound/inhibitor alone” value is greater than 256 µg/mL and the “MIC of MER in combination” value amounted to 8 µg/mL. Besides, the FICI in the test with NDM-HK (NDM-1^+) is on record as 0.750.

`CNC(=C[N+](=O)[O-])NCCSCc1ccc(CN(C)C)o1.O=C([O-])CC(O)(CC(=O)[O-])C(=O)[O-].[Bi+3]` [RBC, ranitidine bismuth citrate]: in the test on NDM-HK (NDM-1^+), the “MBC of Bi(III) compound/inhibitor alone” value was greater than 256 µg/mL, the “MBC of MER in combination” value was determined as 4 µg/mL, the “MIC of Bi(III) compound/inhibitor alone” value was greater than 256 µg/mL and the “MIC of MER in combination” value came out at 2 µg/mL. Moreover, the FICI in the test with NDM-HK (NDM-1^+) stood at 0.250.

These data come from article PMC5789847, “Bismuth antimicrobial drugs serve as broad-spectrum metallo-β-lactamase inhibitors” (Nature Communications, 2018).
